{
  "source": "ChEMBL document CHEMBL3826963",
  "about": "“Pharmacological protection of mitochondrial function mitigates acute limb ischemia/reperfusion injury” (Bioorg Med Chem Lett, 2016)",
  "key": {"Rattus norvegicus [1]": {"test_system": "Rattus norvegicus", "experiment": "Antithrombotic activity in Wistar rat model of thread-induced arterial thrombosis assessed as thrombus weight at 5 umol/kg measured after 2 to 3 hrs (reference value: 42.1 +/- 3.2 mg)"}, "Mus musculus": {"test_system": "Mus musculus", "experiment": "Anti-inflammatory activity in ICR mouse assessed as inhibition of xylene-induced ear edema at 1 umol/kg, po pretreated for 30 mins followed by xylene administration measured after 2 hrs relative to control", "format": "functional"}, "Rattus norvegicus [2]": {"test_system": "Rattus norvegicus", "experiment": "(§1) Protection against Wistar rat model of tourniquet-induced limb ischemia/reperfusion injury-induced oxidative stress assessed as skeletal muscle GSH level at 20 mg/kg, ip dosed 15 mins before and after 3 hrs of ischemia followed by 20 mg/kg, ip compound treatment for 1 hr before and after 4 hrs of reperfusion (reference value: 0.82 +/- 0.19 umol/g)", "format": "functional"}, "Rattus norvegicus [3]": {"test_system": "Rattus norvegicus", "experiment": "as §1, with “MDA” for “GSH”, “45.78” for “0.82”, “4.33 nmol/g)” for “0.19 umol/g)”", "format": "functional"}, "PC-12 [4]": {"test_system": "PC-12", "experiment": "Antioxidant activity in rat PC12 cells assessed as scavenging of H2O2/Fe2+ ion-induced hydroxyl radical by measuring increase in cell survival at 12.5 to 200 uM preincubated for 1 hr followed by H2O2/Fe2+ ion addition measured after 1 hr by MTT assay", "format": "functional, cell-based"}, "PC-12 [5]": {"test_system": "PC-12", "experiment": "Antioxidant activity in rat PC12 cells assessed as scavenging of SNAP-induced NO radical by measuring increase in cell survival at 12.5 to 200 uM preincubated for 1 hr followed by SNAP addition measured after 2 hrs by MTT assay", "format": "functional, cell-based"}, "Rattus norvegicus [6]": {"test_system": "Rattus norvegicus", "experiment": "(§2) Anti-inflammatory activity in Wistar rat model of tourniquet-induced limb ischemia/reperfusion injury assessed as serum TNF-alpha level at 20 mg/kg, ip dosed 15 mins before and after 3 hrs of ischemia followed by 20 mg/kg, ip compound treatment for 1 hr before and after 4 hrs of reperfusion by ELISA (reference value: 185.1 +/- 23.5 pg/ml)", "format": "functional"}, "Rattus norvegicus [7]": {"test_system": "Rattus norvegicus", "experiment": "as §1, with “SOD activity per mg protein” for “GSH level”, “0.41” for “0.82”, “0.09 U)” for “0.19 umol/g)”", "format": "functional"}, "Rattus norvegicus [8]": {"test_system": "Rattus norvegicus", "experiment": "as §1, with “CAT activity per mg protein” for “GSH level”, “25.64” for “0.82”, “5.29 U)” for “0.19 umol/g)”", "format": "functional"}, "Rattus norvegicus [9]": {"test_system": "Rattus norvegicus", "experiment": "as §2, with “IL-6” for “TNF-alpha”, “580.3” for “185.1”, “95.2” for “23.5”", "format": "functional"}, "PC-12 [10]": {"test_system": "PC-12", "experiment": "Antioxidant activity in rat PC12 cells assessed as scavenging of hypoxanthine/xanthine oxidase-induced O2 radical by measuring increase in cell survival at 12.5 to 200 uM preincubated for 1 hr followed by hypoxanthine/xanthine oxidase addition by MTT assay", "format": "functional, cell-based"}},
  "note": "Active and inactive are the calls of the source. The calls are words filed in the database; no cut-off is given here. Where a SMILES comes first, the peptide text is derived from it.",
  "data": [
    {"compound": "COc1ccc(/C=C/C(=O)CC(=O)/C=C/c2ccc(OCC(=O)N[C@@H](CCCCN)C(=O)O)c(OC)c2)cc1OC", "values": [
      {"measurement": "Activity", "setting": "Rattus norvegicus [1]", "value": 38.3, "unit": "mg"},
      {"measurement": "inhibition in vivo at 1 µmol/kg", "setting": "Mus musculus", "value": 39.3, "unit": "%"}
    ]},
    {"compound": "COC(=O)COc1ccc(/C=C/C(=O)CC(=O)/C=C/c2ccc(OC)c(OC)c2)cc1OC", "values": [
      {"measurement": "Activity", "setting": "Rattus norvegicus [2]", "value": 1.55, "unit": "µmol/g"},
      {"measurement": "Activity", "setting": "Rattus norvegicus [3]", "value": 30.12, "unit": "nmol/g"},
      {"measurement": "Activity", "setting": "PC-12 [4]", "value": "Active"},
      {"measurement": "Activity", "setting": "Rattus norvegicus [1]", "value": 40.1, "unit": "mg"},
      {"measurement": "Activity", "setting": "PC-12 [5]", "value": "inactive"},
      {"measurement": "Activity", "setting": "Rattus norvegicus [6]", "value": 160.7, "unit": "pg/mL"},
      {"measurement": "Activity", "setting": "Rattus norvegicus [7]", "value": 0.58, "unit": "U/mg"},
      {"measurement": "Activity", "setting": "Rattus norvegicus [8]", "value": 42.4, "unit": "U/mg"},
      {"measurement": "inhibition in vivo at 1 µmol/kg", "setting": "Mus musculus", "value": 25.1, "unit": "%"},
      {"measurement": "Activity", "setting": "Rattus norvegicus [9]", "value": 472.5, "unit": "pg/mL"},
      {"measurement": "Activity", "setting": "PC-12 [10]", "value": "inactive"}
    ]},
    {"compound": "COc1cc(/C=C/C(=O)CC(=O)/C=C/c2ccc(OCC(=O)N[C@@H](CCCCN)C(=O)O)c(OC)c2)ccc1O", "values": [
      {"measurement": "Activity", "setting": "Rattus norvegicus [1]", "value": 34.5, "unit": "mg"},
      {"measurement": "inhibition in vivo at 1 µmol/kg", "setting": "Mus musculus", "value": 41.1, "unit": "%"}
    ]},
    {"compound": "COC(=O)COc1ccc(/C=C/C(=O)CC(=O)/C=C/c2ccc(O)c(OC)c2)cc1OC", "values": [
      {"measurement": "Activity", "setting": "Rattus norvegicus [2]", "value": 1.41, "unit": "µmol/g"},
      {"measurement": "Activity", "setting": "Rattus norvegicus [3]", "value": 32.47, "unit": "nmol/g"},
      {"measurement": "Activity", "setting": "PC-12 [4]", "value": "Active"},
      {"measurement": "Activity", "setting": "Rattus norvegicus [1]", "value": 39.7, "unit": "mg"},
      {"measurement": "Activity", "setting": "PC-12 [5]", "value": "inactive"},
      {"measurement": "Activity", "setting": "Rattus norvegicus [6]", "value": 155.4, "unit": "pg/mL"},
      {"measurement": "Activity", "setting": "Rattus norvegicus [7]", "value": 0.64, "unit": "U/mg"},
      {"measurement": "Activity", "setting": "Rattus norvegicus [8]", "value": 44.6, "unit": "U/mg"},
      {"measurement": "inhibition in vivo at 1 µmol/kg", "setting": "Mus musculus", "value": 23.3, "unit": "%"},
      {"measurement": "Activity", "setting": "Rattus norvegicus [9]", "value": 450.8, "unit": "pg/mL"},
      {"measurement": "Activity", "setting": "PC-12 [10]", "value": "inactive"}
    ]},
    {"compound": "CC(=O)Oc1ccccc1C(=O)O", "note": "[ASPIRIN]", "values": [
      {"measurement": "Activity", "setting": "Rattus norvegicus [1]", "value": 28.5, "unit": "mg"},
      {"measurement": "inhibition in vivo at 1 µmol/kg", "setting": "Mus musculus", "value": 50.3, "unit": "%"}
    ]},
    {"compound": "C[C@H](NC(=O)[C@@H]1CCCN1)C(=O)N[C@@H](CCCCN)C(=O)O", "note": "(H-Pro-Ala-Lys-OH)", "values": [
      {"measurement": "Activity", "setting": "Rattus norvegicus [1]", "value": 32.8, "unit": "mg"}
    ]}
  ]
}
